In US20090104145A1, “Mixtures of Anthranilamide Invertebrate Pest Control Agents” (priority 2004, published 2009):
Like-named read-outs stand apart in the source and are kept apart here.

Key:
Assay in all cases: whole plant or invertebrate
Format in all cases: in vivo
[1] = tested on: corn planthopper (Pereginus maidis); conditions: read-out: % mortality (obs)
Protocol: (§1) The pest control protection afforded by the mixtures or compositions is not limited, however, to these species. The analysis of synergism or antagonism between the mixtures or compositions was determined using Colby's equation. The average % mortality data for the test compounds alone were inserted into the Colby's equation. If the observed average % mortality was higher than “p”, the expected % mortality, the mixture or composition had synergistic effects. If the observed average % mortality was equal to or lower than the expected mortality, the mixture or composition either had no synergistic effect or an antagonistic effect. In these tests, Compound 1 is the compound of Formula 1.
(§2) Test compounds were formulated using a solution containing 10% acetone, 90% water and 300 ppm X-77® Spreader Lo-Foam Formula non-ionic surfactant containing alkylarylpolyoxyethylene, free fatty acids, glycols and isopropanol (Loveland Industries, Inc.) to provide the desired concentration in ppm. Formulated test solutions were then applied in 1 mL volumes through a SUJ2 atomizer nozzle with ⅛ JJ custom body (Spraying Systems Co.) positioned 1.27 cm (0.5 inches) above the top of each test unit.
For evaluating control of corn planthopper (Pereginus maidis) through contact and/or systemic means, each test unit consisted of a small open cylindrical container with a 3- to 4-day-old corn (maize) plant (spike) inside. White sand was added to the top of the soil prior to application. Test compounds were formulated and sprayed with 3 replications as described for Test A. After spraying, the test units were allowed to dry for 1 hour before they were post-infested with 10 to 20 corn planthoppers (18- to 20-day-old nymphs) by sprinkling them onto the sand with a salt shaker. A black, screened cap was placed on the top of each container. The test units were held for 6 days in a growth chamber at 19-21° C. and 50-70% relative humidity.

[2] = tested on: green peach aphid (Myzus persicae Sulzer); conditions: Myzus persicae, in Raphanus sativus
Protocol: as §1, §2
For evaluating control of green peach aphid (Myzus persicae Sulzer) through contact and/or systemic means, each test unit consisted of a small open container with a 12- to 15-day-old radish plant inside. This was pre-infested by placing on a leaf of the test plant 30 to 40 aphids on a piece of leaf excised from a culture plant (cut-leaf method). The larvae moved onto the test plant as the leaf piece desiccated. After pre-infestation, the soil of the test unit was covered with a layer of sand.
Test compounds were formulated and sprayed as described in Test A, replicated three times. After spraying of the formulated test compound, each test unit was allowed to dry for 1 hour and then a black, screened cap was placed on top. The test units were held for 6 days in a growth chamber at 19-21° C. and 50-70% relative humidity.

[3] = tested on: diamondback moth (Plutella xylostella)
Protocol: as §1
For evaluating control of diamondback moth (Plutella xylostella), cabbage (var. Stonehead) plants were grown in Metromix potting soil in 10-cm pots in aluminum trays to test size (28 days, 3-4 full leaves) the plants were sprayed to the point of runoff using the turntable sprayer as described in Test I. Test compounds were formulated and sprayed on test plants as described for Test I. After drying for 2 hours, the treated leaves were excised and infested with one cabbage looper per cell and covered. The test units were placed on trays and put in a growth chamber at 25° C. and 60% relative humidity for 4 days.

[4] = tested on: cotton melon aphid (Aphis gossypii Glover); conditions: Aphis gossypii
Protocol: as §1, §2
For evaluating control of cotton melon aphid (Aphis gossypii Glover) through contact and/or systemic means, each test unit consisted of a small open container with a 6- to 7-day-old cotton plant inside. This was pre-infested by placing on a leaf of the test plant 30 to 40 aphids on a piece of leaf excised from a culture plant (cut-leaf method). The larvae moved onto the test plant as the leaf piece desiccated. After pre-infestation, the soil of the test unit was covered with a layer of sand.
Test compounds were formulated and sprayed as described for Test A. The applications were replicated three times. After spraying of the formulated test compounds, each test unit was allowed to dry for 1 hour and then a black, screened cap was placed on top. The test units were held for 6 days in a growth chamber at 19-21° C. and 50-70% relative humidity.

[5] = tested on: potato leafhopper (Empoasca fabae Harris); conditions: Empoasca fabae, Imidacloprid 0 ppm, read-out: % Mortality (observed)
Protocol: as §1, §2
For evaluating control of potato leafhopper (Empoasca fabae Harris) through contact and/or systemic means, each test unit consisted of a small open container with a 5- to 6-day-old Longio bean plant (primary leaves emerged) inside. White sand was added to the top of the soil, and one of the primary leaves was excised prior to application. Test compounds were formulated and sprayed with 3 replications as described for Test A. After spraying, the test units were allowed to dry for 1 hour before they were infested with 5 potato leafhoppers (18- to 21-day-old adults). A black, screened cap was placed on the top of each container. The test units were held for 6 days in a growth chamber at 19-21° C. and 50-70% relative humidity.

[6] = tested on: silverleaf whitefly (Bemisia argentifolii Bellows and Perring); conditions: Bemisia argentifolii, in Gossypium hirsutum, read-out: % Mortality (observed)
Protocol: as §1
For evaluating control of silverleaf whitefly (Bemisia argentifolii Bellows and Perring) through contact and/or systemic means, each test unit consisted of a small open container with a 12- to 14-day-old cotton plant inside. This was pre-infested by placing test units into cages infested with adult whiteflies so that oviposition on the cotton leaves could occur. The adults were removed from the plants with an air-blast nozzle, and the test units were capped. The test units were then stored 2 to 3 days before spraying.
as §2
The results for all experimental compositions in this test were replicated three times. After spraying of the formulated test composition, each test unit was allowed to dry for 1 hour and the cap removed. The test units were held for 13 days in a growth chamber at 28° C. and 50-70% relative humidity.

[7] = rate 0.5 ppm, read-out: % mortality (obs)
[8] = rate 2 ppm, read-out: % mortality (obs)

Question: Which results are given for `CNC(=O)c1cc(C#N)cc(C)c1NC(=O)c1cc(Br)nn1-c1ncccc1Cl` [Compound 1, 3-bromo-N-[4-cyano-2-methyl-6-[(methylamino)carbonyl]phenyl]-1-(3-chloro-2-pyridinyl)-1H-pyrazole-5-carboxamide]?
Answer: mortality at 0.3 ppm ([1]; rate 0.3 ppm): 15%; mortality at 3 ppm ([1]; rate 3 ppm): 26%; mortality at 30 ppm ([1]; rate 30 ppm): 90%; mortality at 0.5 ppm ([2]; 0.5 ppm, read-out: % Mortality (observed)): 14%; mortality at 1.1 ppm ([2]; 1.1 ppm, read-out: % Mortality (observed)): 22%; mortality at 2.1 ppm ([2]; 2.1 ppm, read-out: % Mortality (observed)): 49%; mortality at 0.5 ppm [2, 7]: 21%; mortality at 1 ppm ([2]; rate 1 ppm, read-out: % mortality (obs)): 35%; mortality at 2 ppm [2, 8]: 71%; mortality at 0.005 ppm ([3]; Plutella xylostella, in Brassica oleracea, rate 0.005 ppm, read-out: % mortality (obs)): 86%; mortality at 0.02 ppm ([3]; Plutella xylostella, in Brassica oleracea, rate 0.02 ppm, read-out: % mortality (obs)): 87%; mortality at 0.08 ppm ([3]; Plutella xylostella, in Brassica oleracea, rate 0.08 ppm, read-out: % mortality (obs)): 94%; % mortality ([3]; rate 0.02): 83%; % mortality ([3]; rate 0.08): 90%; mortality at 0.08 ppm ([4]; Compound 1 0.08 ppm, read-out: % Mortality (observed)): 15%; mortality at 0.4 ppm ([4]; Compound 1 0.4 ppm, read-out: % Mortality (observed)): 18%; mortality at 1.8 ppm ([4]; Compound 1 1.8 ppm, read-out: % Mortality (observed)): 66%; mortality at 0.1 ppm ([4]; rate 0.1 ppm, read-out: % mortality (obs)): 22%; mortality at 0.5 ppm [4, 7]: 37%; mortality at 2 ppm [4, 8]: 76%; mortality at 0.3 ppm ([5]; Compound 1 0.3 ppm): 0%; mortality at 2.3 ppm ([5]; Compound 1 2.3 ppm): 0%; mortality at 18 ppm ([5]; Compound 1 18 ppm): 100%; mortality at 7 ppm ([6]; Compound 1 7 ppm alone): 58%; mortality at 9 ppm ([6]; Compound 1 9 ppm alone): 69%; mortality at 12 ppm ([6]; Compound 1 12 ppm alone): 72%
